# Assays:
# [1] = Inhibition of Mycobacterium tuberculosis IMPDH
# [2] = system: Mycobacterium tuberculosis; assay: Antimycobacterial activity against Mycobacterium tuberculosis; type: functional
# [3] = system: Mycobacterium tuberculosis; assay: Potency index, ratio of streptomycin MIC to compound MIC for Mycobacterium tuberculosis; type: functional
# [4] = system: Mycobacterium tuberculosis; assay: Potency index, ratio of isoniazid MIC to compound MIC for Mycobacterium tuberculosis; type: functional
# [5] = system: Mycobacterium tuberculosis; assay: Potency index, ratio of ethambutol MIC to compound MIC for Mycobacterium tuberculosis; type: functional
# [6] = system: Mycobacterium tuberculosis; assay: Potency index, ratio of PA-824 MIC to compound MIC for Mycobacterium tuberculosis; type: functional
# [7] = system: Mycobacterium tuberculosis; assay: Potency index, ratio of ofloxacin MIC to compound MIC for Mycobacterium tuberculosis; type: functional
# [8] = system: Mycobacterium tuberculosis; assay: Potency index, ratio of ethionamide MIC to compound MIC for Mycobacterium tuberculosis; type: functional
# [9] = system: Mycobacterium tuberculosis; assay: Antimycobacterial activity against Mycobacterium tuberculosis H37Rv in logarithmic phase; type: functional
# [10] = system: Mycobacterium tuberculosis; assay: Antimycobacterial activity against Mycobacterium tuberculosis H37Rv in hypoxia-induced latent phase; type: functional
# [11] = system: Mycobacterium tuberculosis; assay: Antimycobacterial activity against Mycobacterium tuberculosis H37Rv ATCC 27294 by MABA; type: functional
# [12] = Selectivity index, ratio of IC50 for African green monkey Vero cells to MIC for Mycobacterium tuberculosis H37Rv ATCC 27294; type: toxicity; conditions: read-out: Selectivity Index
# [13] = system: Mycobacterium tuberculosis; assay: Potency index, ratio of pyrazinamide MIC to compound MIC for Mycobacterium tuberculosis H37Rv; type: functional
# [14] = system: Mycobacterium tuberculosis; assay: Potency index, ratio of streptomycin MIC to compound MIC for Mycobacterium tuberculosis H37Rv; type: functional
# [15] = system: Mycobacterium tuberculosis; assay: Potency index, ratio of isoniazid MIC to compound MIC for Mycobacterium tuberculosis H37Rv; type: functional
# [16] = system: Mycobacterium tuberculosis; assay: Potency index, ratio of ciprofloxacin MIC to compound MIC for Mycobacterium tuberculosis H37Rv; type: functional
# HEK293 = assay: Cytotoxicity against HEK293 cells after 24 hrs by MTT assay; type: cell-based; conditions: Homo sapiens, HEK293, 24 h
# [17] = system: Mycobacterium tuberculosis; assay: Antimycobacterial activity against Mycobacterium tuberculosis H37Rv after 5 days by MABA; type: functional; conditions: 120 h
# [18] = system: Mycobacterium tuberculosis; assay: Antimycobacterial activity against replicating Mycobacterium tuberculosis; type: functional
# [19] = system: Mycobacterium tuberculosis; assay: Antimycobacterial activity against non-replicating Mycobacterium tuberculosis; type: functional
# [20] = system: Mycolicibacterium smegmatis; assay: Antimycobacterial activity against Mycobacterium smegmatis; type: functional
# [21] = system: Mycolicibacterium fortuitum; assay: Antimycobacterial activity against Mycobacterium fortuitum; type: functional
# [22] = system: Mycobacterium tuberculosis; assay: Antimycobacterial activity against Mycobacterium tuberculosis ATCC 27294; type: functional
# [23] = system: Mycobacterium tuberculosis; assay: Antimycobacterial activity against Mycobacterium tuberculosis ATCC 35828; type: functional
# [24] = system: Mycobacterium tuberculosis; assay: Antimycobacterial activity against Mycobacterium tuberculosis ATCC 35820; type: functional
# [25] = system: Mycobacterium tuberculosis; assay: Antimycobacterial activity against Mycobacterium tuberculosis ATCC 35822; type: functional
# [26] = system: Mycobacterium tuberculosis; assay: Antimycobacterial activity against Mycobacterium tuberculosis ATCC 35837; type: functional
# [27] = system: Mycobacterium tuberculosis; assay: Antimycobacterial activity against Mycobacterium tuberculosis H37Rv ATCC 27294 by serial dilution assay; type: functional
# [28] = system: Mycobacterium tuberculosis; assay: Antimycobacterial activity against Mycobacterium tuberculosis H37Rv; type: functional; conditions: for MIC: Mycobacterium tuberculosis, H37Rv
smiles,measurement,setting,value
O=C(Cn1c(-c2cscn2)nc2ccccc21)Nc1ccc(F)cc1,IC50,[1],3 to 10 µM
N#Cc1ccc(NC(=O)Cn2c(-c3cscn3)nc3ccccc32)cc1,IC50,[1],3 to 10 µM
O=C(Cn1c(-c2cscn2)nc2ccccc21)Nc1ccc(Br)cc1,IC50,[1],3 µM
O=C(Cn1c(-c2cscn2)nc2ccccc21)Nc1cccc(Cl)c1,IC50,[1],3 to 10 µM
Cc1ccn2c(C(=O)NCc3ccccc3Cl)c(C)nc2c1,MIC,[2],0.003 µM
same,Ratio,[3],>100
same,Ratio,[4],>100
same,Ratio,[5],>100
same,Ratio,[6],>100
same,Ratio,[7],>100
same,Ratio,[8],>100
O=C(Cn1c(-c2cscn2)nc2ccccc21)Nc1ccc(Cl)cc1,IC50,[1],3 to 10 µM
COc1ccc(-c2nc3cc(-c4ccc5[nH]c(-c6ccc(OC)cc6)nc5c4)ccc3[nH]2)cc1,MIC,[9],0.5 to 16 µg/mL
same,MIC,[10],0.5 to 16 µg/mL
Oc1ccc(-c2nc3ccc(-c4ccc5nc(-c6ccc(O)cc6)[nH]c5c4)cc3[nH]2)cc1,MIC,[9],0.5 to 16 µg/mL
same,MIC,[10],0.5 to 16 µg/mL
COc1cccc(-c2nc3ccc(-c4ccc5nc(-c6cccc(OC)c6)[nH]c5c4)cc3[nH]2)c1,MIC,[9],0.5 to 16 µg/mL
same,MIC,[10],0.5 to 16 µg/mL
Cc1ccccc1NC(=O)Cn1c(-c2cscn2)nc2ccccc21,IC50,[1],3 to 10 µM
CCCSc1nnc(-c2ncc([N+](=O)[O-])[nH]2)s1,MIC,[11],3.13 to 6.25 µg/mL
same,selectivity ratio,[12],0.3 to 0.6
CCCS(=O)(=O)c1nnc(-c2ncc([N+](=O)[O-])[nH]2)s1,MIC,[11],> 6.25 µg/mL
same,selectivity ratio,[12],0.3 to 0.6
O=C1/C(=C\c2ccccc2)SC(c2ccc(-n3ccnc3)cc2)N1Nc1ccccc1 (centres undefined),MIC,[2],14.3 to 49.7 µM
Cn1c(-c2cccc(Cl)c2Cl)nc2cc(-c3nc(-c4ccc(Cl)cc4)no3)ccc21,Ratio,[13],2
same,Ratio,[14],4
same,Ratio,[15],4
same,Ratio,[16],2
same,IC50,HEK293,> 500 µg/mL
same,MIC,[17],1.6 to 25 µg/mL
O=C1/C(=C\c2ccc(Cl)cc2)SC(c2ccc(-n3ccnc3)cc2)N1Nc1ccccc1 (centres undefined),MIC,[2],14.3 to 49.7 µM
Cn1c(-c2cccc(Cl)c2F)nc2cc(-c3nc(Cc4cccc(Cl)c4)no3)ccc21,Ratio,[13],2
same,Ratio,[14],4
same,Ratio,[15],4
same,Ratio,[16],2
same,IC50,HEK293,> 500 µg/mL
same,MIC,[17],1.6 to 25 µg/mL
CCCc1cc(=O)oc2c1c(OC)cc1[nH]c(C(=O)OCC)[n+]([O-])c12,MIC,[18],> 50 µg/mL
same,MIC,[19],> 50 µg/mL
CC[S+]([O-])c1nnc(-c2ncc([N+](=O)[O-])[nH]2)s1 (centres undefined),MIC,[11],1.56 µg/mL
same,selectivity ratio,[12],0.3 to 0.6
Cn1c(-c2cccc(Cl)c2Cl)nc2cc(-c3nc(-c4ccccc4Cl)no3)ccc21,Ratio,[13],2
same,Ratio,[14],4
same,Ratio,[15],4
same,Ratio,[16],2
same,IC50,HEK293,355 µg/mL
same,MIC,[17],1.6 to 25 µg/mL
CCSc1nnc(-c2ncc([N+](=O)[O-])[nH]2)s1,MIC,[11],3.13 to 6.25 µg/mL
same,selectivity ratio,[12],0.3 to 0.6
O=C(Cn1c(-c2cscn2)nc2ccccc21)Nc1ccc(I)cc1,IC50,[1],3 to 10 µM
O=C1/C(=C\c2ccc(Br)cc2)SC(c2ccc(-n3ccnc3)cc2)N1Nc1ccccc1 (centres undefined),MIC,[2],14.3 to 49.7 µM
CS(=O)(=O)c1nnc(-c2ncc([N+](=O)[O-])[nH]2)s1,MIC,[11],> 6.25 µg/mL
same,selectivity ratio,[12],0.3 to 0.6
CCCc1cc(=O)oc2c1c(OC)cc1[nH]c(C(=O)N(C)C)[n+]([O-])c12,MIC,[18],> 50 µg/mL
same,MIC,[19],> 50 µg/mL
COc1ccc(NC(=O)Cn2c(-c3cscn3)nc3ccccc32)c(OC)c1,IC50,[1],3 to 10 µM
C[S+]([O-])c1nnc(-c2ncc([N+](=O)[O-])[nH]2)s1 (centres undefined),MIC,[11],1.56 µg/mL
same,selectivity ratio,[12],0.3 to 0.6
Clc1ccc(-n2ncc(C(c3ccccc3)n3ccnc3)c2-c2ccccc2Cl)c(Cl)c1 (centres undefined),MIC,[20],6.7 to 57.7 µM
same,MIC,[21],6.7 to 57.7 µM
same,MIC,[22],6.7 to 57.7 µM
same,MIC,[23],6.7 to 57.7 µM
same,MIC,[24],6.7 to 57.7 µM
same,MIC,[25],6.7 to 57.7 µM
same,MIC,[26],6.7 to 57.7 µM
COc1ccc(-c2nc3ccc(-c4ccc5nc(-c6ccccc6)[nH]c5c4)cc3[nH]2)cc1,MIC,[9],0.25 to 1 µg/mL
same,MIC,[10],0.25 to 1 µg/mL
O=C(Cn1c(-c2cscn2)nc2ccccc21)Nc1ccc([N+](=O)[O-])cc1,IC50,[1],3 to 10 µM
CCCOc1cccc(NC(=O)Cn2c(-c3cscn3)nc3ccccc32)c1,IC50,[1],3 to 10 µM
CCCSc1nnc(-c2ncc([N+](=O)[O-])n2C)s1,MIC,[27],3.12 µg/mL
CCC[S+]([O-])c1nnc(-c2ncc([N+](=O)[O-])[nH]2)s1 (centres undefined),MIC,[11],1.56 µg/mL
same,selectivity ratio,[12],0.3 to 0.6
CSc1nnc(-c2ncc([N+](=O)[O-])[nH]2)s1,MIC,[11],3.13 to 6.25 µg/mL
Cc1ccc(/C=C2/SC(c3ccc(-n4ccnc4)cc3)N(Nc3ccccc3)C2=O)cc1 (centres undefined),MIC,[2],14.3 to 49.7 µM
CCCc1cc(=O)oc2c1c(OCCN1CCOCC1)cc1[nH]c(C(=O)N(C)C)[n+]([O-])c12,MIC,[18],> 50 µg/mL
same,MIC,[19],> 50 µg/mL
CCOc1ccc(-c2nc3ccc(-c4ccc5nc(-c6ccc(OCC)cc6)[nH]c5c4)cc3[nH]2)cc1,MIC,[9],0.5 to 16 µg/mL
same,MIC,[10],0.5 to 16 µg/mL
Cn1c(-c2cccc(Cl)c2F)nc2cc(-c3nc(-c4ccc(Cl)cc4)no3)ccc21,Ratio,[13],2
same,Ratio,[14],4
same,Ratio,[15],4
same,Ratio,[16],2
same,IC50,HEK293,> 500 µg/mL
same,MIC,[17],1.6 to 25 µg/mL
Nc1ccc(-c2nc3cc(-c4ccc5[nH]c(-c6ccc(N)cc6)nc5c4)ccc3[nH]2)cc1,MIC,[9],0.5 to 16 µg/mL
same,MIC,[10],0.5 to 16 µg/mL
O=C(O)c1cn(C2CC2)c2cc(N3CCNCC3)c(F)cc2c1=O [CIPROFLOXACIN],MIC,[17],3.12 µg/mL
NNC(=O)c1ccncc1 [ISONIAZID],MIC,[28],0.2 µg/mL
same,MIC,[17],6.25 µg/mL
NC(=O)c1cnccn1 [PYRAZINAMIDE],MIC,[17],3.12 µg/mL
CO[C@H]1/C=C/O[C@@]2(C)Oc3c(C)c(O)c4c(O)c(c(/C=N/N5CCN(C)CC5)c(O)c4c3C2=O)NC(=O)/C(C)=C\C=C\[C@H](C)[C@H](O)[C@@H](C)[C@@H](O)[C@@H](C)[C@H](OC(C)=O)[C@@H]1C [RIFAMPIN],MIC,[27],0.125 to 0.25 µg/mL
same,MIC98,[28],40 µg/mL
CN[C@@H]1[C@H](O[C@H]2[C@H](O[C@H]3[C@H](O)[C@@H](O)[C@H](N=C(N)N)[C@@H](O)[C@@H]3N=C(N)N)O[C@@H](C)[C@]2(O)C=O)O[C@@H](CO)[C@H](O)[C@H]1O [STREPTOMYCIN],MIC,[28],0.7 µg/mL
same,MIC,[17],6.25 µg/mL

# Source: ChEMBL document CHEMBL4196086, “Recent advances of imidazole-containing derivatives as anti-tubercular agents” (Eur J Med Chem, 2018)
